Source: the NIST ThermoML archive (doi:10.1016/j.fluid.2004.11.025)
Numbers after ± are expanded uncertainties.

Key:
[1] = Liquid; for mass density: 293.15 K, 101.33 kPa; for Normal boiling temperature: Fischer boiling point apparatus
[2] = refractive index (Na D-line) (dimensionless); conditions: 298.15 K; 101.33 kPa; Liquid; Standard Abbe refractometry

Row | mass density [1] [kg/m3] | Normal boiling temperature [1] [°C] | refractive index [2] | Structure (SMILES)
1 | 1049.42 ± 0.29 | 118.1 ± 0.2 | 1.3713 ± 0.0007 | CC(=O)O [acetic acid]
2 | 1061.9 ± 0.61 | 225.1 ± 0.2 | 1.4215 ± 0.0012 | COC(=O)CCCCC(=O)OC [dimethyl 1,6-hexanedioate]
3 |  |  | 1.3324 ± 0.0007 | O [water]
